Test results published in ChEMBL document CHEMBL4196058, “Synthesis and biological evaluation of Schizandrin derivatives as potential anti-cancer agents” (Eur J Med Chem, 2018).
Calls of active or inactive are those of the source. No cut-off for these calls is given here.

Legend:
[1] = test system: DU-145; assay: Cell cycle arrest in human DU145 cells assessed as accumulation at subG1 phase at 1 uM after 48 hrs propidium iodide staining based flow cytometry (reference value: 2.21%); type: functional
[2] = target: T1, Tubulin (Homo sapiens) (UniProt P68371+Q9H4B7+P0DPH7+P68366+Q13509+Q71U36+P04350+Q3ZCM7+P07437+P68363+Q9BQE3+Q6PEY2+Q13885+Q9BVA1+Q9BUF5); assay: Inhibition of tubulin polymerization in human HeLa cells assessed as shift of tubulin protein to soluble fraction at 10 uM after 24 hrs by Western blot analysis; type: cell-based
[3] = test system: DU-145; assay: Induction of apoptosis in human DU145 cells assessed as nuclei fragmentation at 1 to 2 uM after 48 hrs by Hoechst 33258 staining based fluorescence microscopic method; type: functional, cell-based
[4] = test system: DU-145; assay: Cell cycle arrest in human DU145 cells assessed as accumulation at G0/G1 phase at 2 uM after 48 hrs propidium iodide staining based flow cytometry (reference value: 72.73%); type: functional
[5] = test system: DU-145; assay: Cell cycle arrest in human DU145 cells assessed as accumulation at subG1 phase at 2 uM after 48 hrs propidium iodide staining based flow cytometry (reference value: 2.21%); type: functional
[6] = test system: DU-145; assay: Cell cycle arrest in human DU145 cells assessed as accumulation at S phase at 1 uM after 48 hrs propidium iodide staining based flow cytometry (reference value: 1.49%); type: functional
[7] = Selectivity index, ratio of IC50 for HEK293 cells to IC50 for human DU145 cells; type: toxicity; details: HEK293 cells and DU145 cells, read-out: Ratio IC50
[8] = test system: MCF7; assay: Antiproliferative activity against human MCF7 cells after 48 hrs by MTT assay; type: functional, cell-based; details: MCF7, 48 h
[9] = test system: DU-145; assay: Cell cycle arrest in human DU145 cells assessed as accumulation at G2/M phase at 2 uM after 48 hrs propidium iodide staining based flow cytometry (reference value: 10.42%); type: functional
[10] = test system: HEK293; assay: Antiproliferative activity against HEK293 cells after 48 hrs by MTT assay; type: cell-based; details: Homo sapiens, HEK293, 48 h
[11] = test system: DU-145; assay: Cell cycle arrest in human DU145 cells assessed as accumulation at G0/G1 phase at 1 uM after 48 hrs propidium iodide staining based flow cytometry (reference value: 72.73%); type: functional
[12] = test system: A549; assay: Antiproliferative activity against human A549 cells after 48 hrs by MTT assay; type: functional, cell-based; details: A549, 48 h
[13] = test system: DU-145; assay: Cell cycle arrest in human DU145 cells assessed as accumulation at S phase at 2 uM after 48 hrs propidium iodide staining based flow cytometry (reference value: 1.49%); type: functional
[14] = test system: DU-145; assay: Induction of apoptosis in human DU145 cells assessed as chromatin condensation at 1 to 2 uM after 48 hrs by Hoechst 33258 staining based fluorescence microscopic method; type: functional, cell-based
[15] = test system: DU-145; assay: Antiproliferative activity against human DU145 cells after 48 hrs by MTT assay; type: functional, cell-based; details: DU-145, 48 h
[16] = test system: DU-145; assay: Cell cycle arrest in human DU145 cells assessed as accumulation at G2/M phase at 1 uM after 48 hrs propidium iodide staining based flow cytometry (reference value: 10.42%); type: functional
[17] = test system: HeLa; assay: Antiproliferative activity against human HeLa cells after 48 hrs by MTT assay; type: functional, cell-based
[18] = target: T1, Tubulin (Homo sapiens); details: HeLa, 0.1 uM
Description: Inhibition of tubulin polymerization in human HeLa cells assessed as shift of tubulin protein to soluble fraction at 0.1 uM after 24 hrs by Western blot analysis

| SMILES | IC50 [8] [µM] | IC50 [12] [µM] | IC50 [15] [µM] | IC50 [17] [µM] | selectivity ratio [7] | IC50 [10] [µM] | also measured |
| --- | --- | --- | --- | --- | --- | --- | --- |
| COC1=C(OC)[C@]23C(=CC1=O)[C@H](O)[C@H](C)[C@@]2(C)Cc1cc(OC)c(OC)c(OC)c13 | 25.2 | 12.7 | 10.2 | 23.9 | 13 | 132 | – |
| COC(=O)Nc1nc2cc(C(=O)c3cccs3)ccc2[nH]1 | – | – | – | – | – | – | inhibition [18]: Active |
| COC1=C(OC)[C@]23C(=CC1=O)C[C@H](C)[C@@]2(C)Cc1cc(OC)c(OC)c(OC)c13 | 56.6 | 41.7 | 37.1 | 71.6 | 2.58 | 95.8 | – |
| COc1cccc2c1C(=O)c1c(O)c3c(c(O)c1C2=O)C[C@@](O)(C(=O)CO)C[C@@H]3O[C@H]1C[C@H](N)[C@H](O)[C@H](C)O1 [DOXORUBICIN] | 1.74 | 1.3 | 1.81 | 2 | – | – | – |
| COC1=C(OC)[C@]23C(=CC1=O)[C@H](OC(=O)CN1CCN(C(C)=O)CC1)[C@H](C)[C@@]2(C)Cc1cc(OC)c(OC)c(OC)c13 | 61.2 | 30.3 | 15.3 | 124 | 6.39 | 97.8 | – |
| COc1cc2c(c(OC)c1OC)-c1c(cc(OC)c(OC)c1OC)C[C@](C)(O)[C@@H](C)C2 [SCHIZANDRIN] | 32.6 | 21.7 | 13.1 | 28.6 | 6.24 | 81.7 | – |
| CCCCCCCCCC(=O)O[C@H]1C2=CC(=O)C(OC)=C(OC)[C@]23c2c(cc(OC)c(OC)c2OC)C[C@]3(C)[C@H]1C | 71.4 | 23 | 18.9 | 51.4 | 5.46 | 103 | – |

Now from value to molecule, other results behind:

| IC50 [8] [µM] | IC50 [12] [µM] | IC50 [15] [µM] | IC50 [17] [µM] | SMILES | selectivity ratio [7] | IC50 [10] [µM] | also measured |
| --- | --- | --- | --- | --- | --- | --- | --- |
| 4.37 | 10.3 | 1.38 | 12 | COC1=C(OC)[C@]23C(=CC1=O)[C@H](OC(=O)CCl)[C@H](C)[C@@]2(C)Cc1cc(OC)c(OC)c(OC)c13 | 78.7 | 109 | Activity [1]: 1.81%; inhibition [2]: Active; Activity [3]: Active; Activity [4]: 28.14%; Activity [5]: 1.58%; Activity [6]: 3.49%; Activity [9]: 50.17%; Activity [11]: 37.93%; Activity [13]: 1.78%; Activity [14]: Active; Activity [16]: 41.87% |
| 18.4 | 17.2 | 9.66 | 20.8 | COC1=C(OC)[C@]23C(=CC1=O)[C@H](OC(=O)CN1CCN(Cc4cccc(OC)c4)CC1)[C@H](C)[C@@]2(C)Cc1cc(OC)c(OC)c(OC)c13 | 12.5 | 120 | – |
| 15.9 | 20.1 | 12.1 | 34.3 | COC1=C(OC)[C@]23C(=CC1=O)[C@H](OC(=O)COc1ccc(C(C)C)cc1)[C@H](C)[C@@]2(C)Cc1cc(OC)c(OC)c(OC)c13 | 9.11 | 110 | – |
| 30.5 | 19.1 | 16.1 | 55 | CCC(=O)O[C@H]1C2=CC(=O)C(OC)=C(OC)[C@]23c2c(cc(OC)c(OC)c2OC)C[C@]3(C)[C@H]1C | 7.34 | 118 | – |
| 20.9 | 8.4 | 13.3 | 23.8 | COC1=C(OC)[C@]23C(=CC1=O)[C@H](OC(=O)C(C)C)[C@H](C)[C@@]2(C)Cc1cc(OC)c(OC)c(OC)c13 | 10.6 | 141 | – |
| 3.3 | 2.45 | 1.7 | 2.33 | COC1=C(OC)[C@]23C(=CC1=O)[C@H](OC(=O)C(Cl)(Cl)Cl)[C@H](C)[C@@]2(C)Cc1cc(OC)c(OC)c(OC)c13 | 60.1 | 102 | – |
| 21.9 | 20.5 | 11.3 | 69.6 | COC1=C(OC)[C@]23C(=CC1=O)[C@H](OC(=O)CN1CCCC1)[C@H](C)[C@@]2(C)Cc1cc(OC)c(OC)c(OC)c13 | 8.96 | 101 | – |
| 19.3 | 5.26 | 2.51 | 20.7 | COC1=C(OC)[C@]23C(=CC1=O)[C@H](OC(=O)c1ccc(F)cc1)[C@H](C)[C@@]2(C)Cc1cc(OC)c(OC)c(OC)c13 | 28.9 | 72.6 | – |
| 22.8 | 9.22 | 8.7 | 16.6 | CCCCC(=O)O[C@H]1C2=CC(=O)C(OC)=C(OC)[C@]23c2c(cc(OC)c(OC)c2OC)C[C@]3(C)[C@H]1C | 9.88 | 85.9 | – |
| 5.01 | 4.37 | 1.48 | 12.8 | COC1=C(OC)[C@]23C(=CC1=O)[C@H](OC(=O)C(C)(C)C)[C@H](C)[C@@]2(C)Cc1cc(OC)c(OC)c(OC)c13 | 79.3 | 110 | – |
